Consider 22 compounds from ChEMBL document CHEMBL1156712, “CNS depressant and anticonvulsant activities of some novel 3-[5-substituted 1,3,4-thiadiazole-2-yl]-2-styryl quinazoline-4(3H)-ones” (Eur J Med Chem, 2008).

In data set [1] the test system is Mus musculus. Briefly: Neurotoxicity in mouse assessed as minimal motor impairment at 300 mg/kg, ip after 4 hrs by rotarod test. The class given is toxicity, organism-based. Set-up: dose 300 mg/kg, route intraperitoneal. Conditions: in vivo.
The subject of data set [2] is Mus musculus. Description: Neurotoxicity in mouse assessed as minimal motor impairment at 300 mg/kg, ip after 0.5 hrs by rotarod test. The format is toxicity, organism-based. As to conditions: in vivo. Further details: dose 300 mg/kg, route intraperitoneal.
For the next data set, the system named is Rattus norvegicus. Description: Central nervous system depressant activity in Wistar rat assessed as immobility time at 100 mg/kg, po after 1 hr by forced swim pool test. The format is functional.
For data set [3], the system named is Mus musculus. Description: Anticonvulsant activity in mouse at 300 mg/kg, ip after 0.5 hrs by scPTZ test. The format is functional, organism-based. Further details: dose 300 mg/kg.
Data set [4] relates to Mus musculus. Description: Anticonvulsant activity in mouse at 300 mg/kg, ip after 0.5 hrs by MES test. The class given is functional, organism-based. Further details: dose 300 mg/kg.
The subject of data set [5] is Mus musculus. Briefly: Anticonvulsant activity in mouse at 300 mg/kg, ip after 4 hrs by scPTZ test. The class given is functional, organism-based. Set-up: dose 300 mg/kg.
Data set [6] deals with Mus musculus. Description: Anticonvulsant activity in mouse at 300 mg/kg, ip after 4 hrs by MES test. The format is functional, organism-based. Set-up: dose 300 mg/kg.
Data set [7] concerns Mus musculus. Briefly: Anticonvulsant activity in ip dosed mouse after 0.5 hrs by scPTZ test. The format is functional.
For data set [8], the system named is Mus musculus. Briefly: Neurotoxicity in ip dosed mouse assessed as minimal motor impairment after 0.5 hrs by rotarod test. Conditions: in vivo. The class given is toxicity, organism-based.
Data set [9] has as its system Mus musculus. Description: Anticonvulsant activity in ip dosed mouse after 4 hrs by MES test. The class given is functional.
The subject of data set [10] is Mus musculus. Briefly: Neurotoxicity in ip dosed mouse assessed as minimal motor impairment after 4 hrs by rotarod test. The format is toxicity, organism-based. As to conditions: in vivo.
The subject of data set [11] is Mus musculus. Briefly: Anticonvulsant activity in ip dosed mouse after 0.5 hrs by MES test. The format is functional.
Data set [12] concerns Mus musculus. Description: Anticonvulsant activity in ip dosed mouse after 4 hrs by scPTZ test. The format is functional.
For data set [13], the system named is Mus musculus. Description: Neurotoxicity in ip dosed mouse assessed as minimal motor impairment at 100 mg/kg, ip after 0.25 hrs by rotarod test. The class given is toxicity, organism-based. Set-up: dose 100 mg/kg, route intraperitoneal. Conditions: in vivo.
Data set [14] deals with Mus musculus. Description: Neurotoxicity in ip dosed mouse assessed as minimal motor impairment at 100 mg/kg, ip after 1 hr by rotarod test. The class given is toxicity, organism-based. Further details: dose 100 mg/kg, route intraperitoneal. As to conditions: in vivo.
Data set [15] deals with Mus musculus. Briefly: Toxicity in mouse at 300 mg/kg, ip after 4 hrs. The class given is organism-based. Further details: dose 300 mg/kg, route intraperitoneal. Conditions: in vivo.
Data set [16] concerns Mus musculus. Description: Neurotoxicity in ip dosed mouse assessed as loss of righting reflux after 0.5 hrs. Conditions: in vivo. The format is toxicity, organism-based.

Activity calls are given as the source filed them. The rule behind the calls is not given here.

For `O=c1c2ccccc2nc(/C=C/c2ccncc2)n1-c1nnc(-c2ccccc2)s1`, the Activity entry in the data set with Mus musculus [1] and with Mus musculus [2] was “Non-toxic” in each case. Also, the Time with Rattus norvegicus was 83.23 s. For the same compound, the result in the data set on Mus musculus [3], with Mus musculus [4], in the data set with Mus musculus [5] and with Mus musculus [6] was inactive.
For the compound `O=c1c2ccccc2nc(/C=C/c2cccc(Cl)c2)n1-c1nnc(/C=C/c2ccccc2)s1`, the Activity result in the data set with Mus musculus [1] and in the data set with Mus musculus [2] was “Non-toxic” each time. In addition, the Time with Rattus norvegicus is on record as 187.91 s. The outcome in the data set on Mus musculus [3], in the data set on Mus musculus [4], in the data set with Mus musculus [5] and in the data set with Mus musculus [6] was inactive.
`CCC1(C)CC(=O)NC1=O` (centres undefined) [ETHOSUXIMIDE]: the figures for the Activity entry with Mus musculus [1], in the data set on Mus musculus [7] and in the data set with Mus musculus [2] were “Non-toxic”, 300 mg/kg and “Non-toxic”, respectively. Besides, the result in the data set on Mus musculus [4], in the data set with Mus musculus [5] and in the data set on Mus musculus [6] was inactive.
With `COc1ccc(-c2nnc(-n3c(/C=C/c4ccncc4)nc4ccccc4c3=O)s2)cc1`, the Activity result with Mus musculus [1] and in the data set with Mus musculus [2] was “Non-toxic” in each case. For the same compound, the Time in the data set on Rattus norvegicus is on record as 168.42 s. Besides, the outcome in the data set with Mus musculus [3], in the data set with Mus musculus [4], with Mus musculus [5] and with Mus musculus [6] was inactive.
As for `NC(=O)N1c2ccccc2C=Cc2ccccc21` [CARBAMAZEPINE], the Activity with Mus musculus [7] amounted to 100 mg/kg; with Mus musculus [8] it was 100 mg/kg; with Mus musculus [10], 100 mg/kg; in the data set on Mus musculus [11] it was 30 mg/kg; in the data set on Mus musculus [12], 300 mg/kg. Also, in the data set with Mus musculus [9], the Active dose turned out to be 100 mg/kg.
`O=c1c2ccccc2nc(/C=C/c2ccc(Cl)cc2)n1-c1nnc(/C=C/c2ccccc2)s1`: the Activity entry in the data set with Mus musculus [1] and in the data set on Mus musculus [2] was “Non-toxic” each time. Also, in the data set with Rattus norvegicus, the Time is reported as 73.83 s. In addition, the result with Mus musculus [3], with Mus musculus [4], in the data set with Mus musculus [5] and in the data set with Mus musculus [6] was inactive.
With `O=c1c2ccccc2nc(/C=C/c2cccc(Cl)c2)n1-c1nnc(-c2ccc(Cl)cc2)s1`, the Activity result in the data set with Mus musculus [1] and in the data set on Mus musculus [2] was “Non-toxic” in each case. In addition, the Time in the data set with Rattus norvegicus was determined as 163.75 s. Further, the outcome with Mus musculus [3], in the data set with Mus musculus [4], in the data set with Mus musculus [5] and in the data set with Mus musculus [6] was inactive.
Turning to `O=c1c2ccccc2nc(/C=C/c2ccncc2)n1-c1nnc(-c2ccc(Cl)cc2)s1`, the Activity result is “Non-toxic” in the data set with Mus musculus [1], 300 mg/kg in the data set on Mus musculus [7], 300 mg/kg with Mus musculus [8] and 300 mg/kg in the data set with Mus musculus [12]. Further, the Active dose with Mus musculus [9] came to 100 mg/kg. The Time with Rattus norvegicus is listed as 99.82 s. In addition, the outcome with Mus musculus [4] was inactive.
For `COc1ccc(-c2nnc(-n3c(/C=C/c4ccc(Cl)cc4)nc4ccccc4c3=O)s2)cc1`, the Activity with Mus musculus [8] and with Mus musculus [10] was 300 mg/kg throughout. The Time with Rattus norvegicus was determined as 177.08 s. Further, the result in the data set on Mus musculus [3], in the data set with Mus musculus [4], in the data set with Mus musculus [5] and in the data set on Mus musculus [6] was inactive.
In the case of `O=c1c2ccccc2nc(/C=C/c2cccc(Cl)c2)n1-c1nnc(-c2cccc(Cl)c2)s1`, the Activity entry with Mus musculus [1] and with Mus musculus [2] was “Non-toxic” in each case. Besides, in the data set on Rattus norvegicus, the Time stood at 175.83 s. The result with Mus musculus [3], with Mus musculus [4], in the data set with Mus musculus [5] and in the data set on Mus musculus [6] was inactive.
Take `Cc1ccc(-c2nnc(-n3c(/C=C/c4ccc(Cl)cc4)nc4ccccc4c3=O)s2)cc1`: the results for the Activity result with Mus musculus [1] and in the data set with Mus musculus [8] were “Non-toxic” and 300 mg/kg, respectively. In the data set on Rattus norvegicus, the Time turned out to be 150.1 s. Further, the outcome in the data set on Mus musculus [3], in the data set on Mus musculus [4], with Mus musculus [5] and with Mus musculus [6] was inactive.
As for `CCCC(CCC)C(=O)[O-].[Na+]` [VALPROATE SODIUM], the Activity entry in the data set with Mus musculus [1] is “Non-toxic”; with Mus musculus [7], 300 mg/kg; with Mus musculus [2] it was “Non-toxic”. Besides, the result with Mus musculus [4], in the data set on Mus musculus [5] and in the data set on Mus musculus [6] was inactive.
For the compound `Cc1ccc(-c2nnc(-n3c(/C=C/c4cccc(Cl)c4)nc4ccccc4c3=O)s2)cc1`, the Activity entry with Mus musculus [1] and with Mus musculus [2] was “Non-toxic” throughout. Besides, the Time with Rattus norvegicus came to 100.76 s. Moreover, the outcome in the data set with Mus musculus [3], in the data set with Mus musculus [4], with Mus musculus [5] and with Mus musculus [6] was inactive.
With `COc1ccc(-c2nnc(-n3c(/C=C/c4cccc(Cl)c4)nc4ccccc4c3=O)s2)cc1`, the Activity entry in the data set on Mus musculus [1] and in the data set on Mus musculus [2] was “Non-toxic” each time. Also, the Time with Rattus norvegicus turned out to be 163.21 s. Also, the result in the data set with Mus musculus [3], in the data set on Mus musculus [4], in the data set on Mus musculus [5] and in the data set on Mus musculus [6] was inactive.
As to `O=c1c2ccccc2nc(/C=C/c2ccc(Cl)cc2)n1-c1nnc(-c2cccc(Cl)c2)s1`, the Activity result is “Non-toxic” in the data set on Mus musculus [1]; 300 mg/kg in the data set with Mus musculus [7]; 300 mg/kg in the data set with Mus musculus [8]; 100 mg/kg in the data set with Mus musculus [13]; 100 mg/kg in the data set on Mus musculus [14]; 300 mg/kg in the data set on Mus musculus [12]. The Time with Rattus norvegicus worked out at 127.48 s. The outcome in the data set with Mus musculus [4] and in the data set on Mus musculus [6] was inactive.
As for `O=c1c2ccccc2nc(/C=C/c2ccncc2)n1-c1nnc(-c2cccc(Cl)c2)s1`, the Activity in the data set with Mus musculus [8] and with Mus musculus [10] was 300 mg/kg in each case. Also, the Time in the data set with Rattus norvegicus is 142.36 s. Also, the outcome with Mus musculus [3], with Mus musculus [4], in the data set with Mus musculus [5] and in the data set on Mus musculus [6] was inactive.
Regarding `O=c1c2ccccc2nc(/C=C/c2ccc(Cl)cc2)n1-c1nnc(-c2ccccc2)s1`, the Activity result in the data set with Mus musculus [1] was “Non-toxic”; in the data set on Mus musculus [7] it was 300 mg/kg; in the data set on Mus musculus [2], “Non-toxic”; with Mus musculus [15], “Toxic”; in the data set on Mus musculus [11], 100 mg/kg; with Mus musculus [12] it was 300 mg/kg. This compound also came in with an Active dose in the data set on Mus musculus [9] of 300 mg/kg. For the same compound, the Time in the data set with Rattus norvegicus is 103.26 s.
On to `O=c1c2ccccc2nc(/C=C/c2cccc(Cl)c2)n1-c1nnc(-c2ccccc2)s1`, for which the Activity entry is “Non-toxic” in the data set on Mus musculus [1], 300 mg/kg with Mus musculus [8] and “Toxic” with Mus musculus [16]. For the same compound, the Time with Rattus norvegicus worked out at 132.69 s. Further, the outcome in the data set with Mus musculus [3], with Mus musculus [4], in the data set with Mus musculus [5] and with Mus musculus [6] was inactive.
Take `O=c1c2ccccc2nc(/C=C/c2ccc(Cl)cc2)n1-c1nnc(-c2ccc(Cl)cc2)s1`: the Activity result in the data set on Mus musculus [1] is “Non-toxic”; in the data set on Mus musculus [8], 300 mg/kg. Further, the Time in the data set on Rattus norvegicus is on record as 117.93 s. The outcome in the data set with Mus musculus [3], in the data set on Mus musculus [4], with Mus musculus [5] and in the data set on Mus musculus [6] was inactive.
Regarding `O=C1NC(=O)C(c2ccccc2)(c2ccccc2)N1` [PHENYTOIN], the Activity stood at 100 mg/kg in the data set with Mus musculus [8], 100 mg/kg in the data set on Mus musculus [10] and 30 mg/kg in the data set with Mus musculus [11]. Moreover, in the data set with Mus musculus [9], the Active dose was found to be 30 mg/kg. Also, the result in the data set on Mus musculus [3] and with Mus musculus [5] was inactive.
With `Cc1ccc(-c2nnc(-n3c(/C=C/c4ccncc4)nc4ccccc4c3=O)s2)cc1`, the values for the Activity entry in the data set with Mus musculus [1] and in the data set with Mus musculus [8] were “Non-toxic” and 100 mg/kg, respectively. Also, the Time with Rattus norvegicus came out at 131.51 s. Further, the result in the data set on Mus musculus [3], with Mus musculus [4], in the data set with Mus musculus [5] and with Mus musculus [6] was inactive.
With `O=c1c2ccccc2nc(/C=C/c2ccncc2)n1-c1nnc(/C=C/c2ccccc2)s1`, the Activity result with Mus musculus [1] and with Mus musculus [2] was “Non-toxic” each time. Also, in the data set with Rattus norvegicus, the Time is 114.42 s. Also, the result in the data set on Mus musculus [3], in the data set with Mus musculus [4], in the data set with Mus musculus [5] and with Mus musculus [6] was inactive.
